# Patent US20060040945A1, “Annellated pyrrole compounds as proton pump inhibitors for treating ulcer” (MERCKLE GMBH, priority 2002, published 2006)
# Where two headings read alike, the source gives them in different places.
# What was measured:
# [1] = target: T1, gastric H,K-ATPase (Sus scrofa, UniProt P19156); test: K+-stimulated, SCH28080-sensitive H,K-ATPase activity of pig gastric microsomes (32Pi release from ATP); assay type: biochemical; settings: for IC50: pig gastric microsomes, pH 7.0, 20 minutes at 37° C., read-out: half-maximal inhibitory concentration (IC50), H,K-ATPase activity; for effect on H,K-ATPase activity: non-physiological concentrations greater than 10^−7 M; for inhibitory activity against H,K-ATPase: physiological concentrations (10^−9-10^−8 M); for inhibitory effect on microsomal H,K-ATPase activity: concentrations up to 10^−4 M
# T1 construct: Reaction mixtures for assay of K^+-stimulated ATPase activity in pig gastric microsomal membranes contained 5 μg membrane protein; from tissue; host or cells: pig gastric fundic mucosa, G1 microsomal fraction
# Procedure: Strategy. Microsomal gastric H,K-ATPase was prepared from pig gastric mucosal homogenates by differential centrifugation. Briefly, pig stomachs obtained at a slaughter-house within 1 hour post mortem were washed with ice-cold 0,25 M sucrose and the fundus was dissected from the cardiac and antral regions. All subsequent prodedures were at 4° C. The mucosa was flooded with saturated NaCl, and the surface mucus and superficial cells wiped off with paper towels. The mucosa was scraped from the underlying connective tissue, suspended (10% w/v) in isolation buffer (0,25 M sucrose, 20 mM HEPES, pH 7,4, 1 mM EDTA, 1 mM phenylmethylsulfonyl fluoride), and disrupted by two 10 second bursts at maximum power in a Tissumizer (Tekmar, Cincinnati, Ohio). The homogenate was centrifuged at 20,000 g for 30 minutes, and the supernatant was centrifuged at 10^5 g for 1 hour. The resulting microsomal pellet was resuspended in isolation buffer, and applied to a discontinuous gradient of 7% w/v Ficoll and 34% sucrose (both in isolation buffer). After 3 hours at 32,500 rpm (Sorvall AH 629 rotor), the microsomal band (G1) recovered from the 7% Ficoll interface was resuspended to 10 mg/ml in 15 mM PIPES-Tris, pH 6,8, diluted 1:1 with cold 60% sucrose, lyophilized in 0,5 ml aliquots, and stored at −70° C. Gl microsomes were about 0,1 microns in diameter, were enriched in H.K.-ATPase activity, and more than 80% of their protein content banded at 94 kDa by SDS-PAGE. ATP hydrolytic activity of microsomes was quantitated in terms of inorganic phosphate release from substrate ATP and measured in graded concentrations (ranging from 10^−9M to 10^−4M) of ML 3000, and a wide range of other compounds. Reaction mixtures for assay of K^+-stimulated ATPase activity in pig gastric microsomal membranes contained 5 μg membrane protein, 100 mM Tris-acetate, pH 7.0, 1 mM MgCl2, 1 mM NaNa, 0,1 mM EGTA, 5 μM ATP (γ-^32P-ATP, 10 Ci/mmol, NEN, Boston, Mass.), 0-10 mM KCl, and 0-100 μM SCH 28080. After 20 minutes incubation at 37° C., reactions were stopped by addition of 10% w/v activated charcoal (Sigma), 5,5% w/v trichloroacetic acid, vortexed vigorously, and centrifuged at 14,000 g for 10 minutes at 4° C. Inorganic phosphate (γ-^32Pi) content of the supernatant was measured by scintillation counting. […] Graphs with standard error bars present inter-assay data variance in three independent assays in each of which ATPase activities in three separate but identical reaction conditions were measured. Graphs without standard error bars represent the mean ATPase activities in three separate but identical reaction conditions in one of at least three independent assays; typical data are shown in these cases.
# The wide range of published PPI IC50 values for microsomal H,K-ATPase reflects the mechanistic necessity for compound acidification to allow formation of a thiol-reactive […] intermediate which then irreversibly derivatizes H,K-ATPase a subunit cysteine residues leading to enzyme inhibition. […] Microsomal vesicle preparations vary widely in their ion-tightness, which affects the extent to which internal pH can be lowered by H,K-ATPase turnover, and therefore the extent to which omeprazole diffusing into the vesicle can be acidified and activated. Alternatively, prior in vitro acidification of omeprazole ensures induction of its inhibitory properties, and is essential in assays carried out using ion-permeable microsomal H,K-ATPase preparations. For this reason, the omeprazole inhibitory data shown in FIG. 2 were derived using omeprazole acidified to pH 6.1 and incubated with the enzyme for 30 min at the same pH (8).
# Given that PPIs are irreversible inhibitors of H,K-ATPase activity, covalently binding to the catalytic α-subunit, it was determined whether ML 3000 inhibition of H,K-ATPase was reversible or irreversible. […]
# [2] = test system: rabbit gastric parietal cells; test: [14C]-aminopyrine (acid) accumulation in isolated gastric parietal cells; assay type: cell-based; settings: for IC50: Oryctolagus cuniculus; for effect on acid accumulation by isolated rabbit parietal cells: up to concentrations of 10^−4 M
# Procedure: Strategy. Gastric parietal cells were isolated from New Zealand White Rabbits by pronase/collagenase digestion of fundic mucosa followed by enrichment of cells on discontinuous Nycodenz gradients in a manner known per se. Aminopyrine accumulation into parietal cells was assessed in 96 well filter plates with Durapore membranes. […] All determinations were performed in quadruplicate. Basal aminopyrine accumulation was determined as aminopyrine accumulation into […] (a reflection of non-specific isotope trapping).
# [3] = test system: human gastric adenocarcinoma (AGS) cells; test: IL-8 secretion by AGS cells into culture medium (ELISA); assay type: cell-based; settings: 6 hr
# [4] = Plasma ML3000 level after immediate release dosage forms; assay type: in vivo; settings: immediate release dosage form
# [5] = target: T1, gastric H,K-ATPase; test: K+-stimulated, SCH28080-sensitive H,K-ATPase activity of pig gastric microsomes (32Pi release from ATP); assay type: biochemical; settings: concentrations up to 10^−3 M
# [6] = target: gastric H,K-ATPase; settings: cited from earlier work; for IC50: literature (refs 6, 7), read-out: published IC50, H,K-ATPase
# [7] = AGS cells without IL-1β stimulation, read-out: IC50, baseline IL-8 secretion
# T1 sequence (P19156 2-1034 limits assumed): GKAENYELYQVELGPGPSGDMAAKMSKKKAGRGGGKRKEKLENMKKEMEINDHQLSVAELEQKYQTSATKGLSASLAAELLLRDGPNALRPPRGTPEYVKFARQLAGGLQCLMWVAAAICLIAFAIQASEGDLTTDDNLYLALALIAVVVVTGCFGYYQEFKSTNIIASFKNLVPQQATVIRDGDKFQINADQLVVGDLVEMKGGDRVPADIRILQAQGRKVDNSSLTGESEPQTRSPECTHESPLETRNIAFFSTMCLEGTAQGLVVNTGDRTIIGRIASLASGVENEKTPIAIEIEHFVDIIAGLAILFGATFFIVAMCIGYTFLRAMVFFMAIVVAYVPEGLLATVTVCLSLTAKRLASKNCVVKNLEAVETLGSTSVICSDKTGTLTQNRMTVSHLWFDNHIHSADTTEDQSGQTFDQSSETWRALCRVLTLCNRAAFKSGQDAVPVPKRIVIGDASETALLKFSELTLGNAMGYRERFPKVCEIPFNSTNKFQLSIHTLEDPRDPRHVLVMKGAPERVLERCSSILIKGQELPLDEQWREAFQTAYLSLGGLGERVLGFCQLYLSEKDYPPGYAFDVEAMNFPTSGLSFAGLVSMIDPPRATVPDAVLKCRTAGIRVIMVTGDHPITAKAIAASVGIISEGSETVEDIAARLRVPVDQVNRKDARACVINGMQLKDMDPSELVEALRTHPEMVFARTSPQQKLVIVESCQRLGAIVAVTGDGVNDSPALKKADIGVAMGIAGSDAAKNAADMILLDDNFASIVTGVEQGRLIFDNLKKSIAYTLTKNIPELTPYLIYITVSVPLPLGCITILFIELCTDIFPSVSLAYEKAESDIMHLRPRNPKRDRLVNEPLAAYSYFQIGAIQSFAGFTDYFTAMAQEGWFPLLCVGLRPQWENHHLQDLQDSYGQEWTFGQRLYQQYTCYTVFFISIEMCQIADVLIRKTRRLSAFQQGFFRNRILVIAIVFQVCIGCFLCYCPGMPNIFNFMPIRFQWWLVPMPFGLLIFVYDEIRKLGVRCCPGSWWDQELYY
# T1 sequence (P18434 whole entry partner): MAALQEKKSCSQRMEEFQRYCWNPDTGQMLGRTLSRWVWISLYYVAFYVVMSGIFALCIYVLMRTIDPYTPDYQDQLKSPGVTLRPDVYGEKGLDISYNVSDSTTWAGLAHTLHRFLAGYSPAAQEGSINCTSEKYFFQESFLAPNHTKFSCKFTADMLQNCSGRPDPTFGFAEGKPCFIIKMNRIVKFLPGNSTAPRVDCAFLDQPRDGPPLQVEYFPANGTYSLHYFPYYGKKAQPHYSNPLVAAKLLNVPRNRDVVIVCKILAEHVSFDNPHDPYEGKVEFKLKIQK
smiles,measurement,setting,value
CCCCC/C=C\C/C=C\C/C=C\C/C=C\CCCC(=O)O [Arachidonic acid],IC50,[1],30 µM
"CCCCC/C=C\C[C@@H](O)/C=C/C=C/C=C\[C@@H](O)CCCC(=O)O [LTB4, leukotriene B4]","effect on H,K-ATPase activity",[1],"significant attentuation of H,K-ATPase activity"
same,"inhibitory activity against H,K-ATPase",[1],neither leukotriene showed any inhibitory activity
"CCCCC/C=C\C\C=C/C=C/C=C/[C@@H](SC[C@H](N)C(=O)NCC(=O)O)[C@@H](O)CCCC(=O)O [LTD4, leukotriene D4]","effect on H,K-ATPase activity",[1],"significant attentuation of H,K-ATPase activity"
same,"inhibitory activity against H,K-ATPase",[1],neither leukotriene showed any inhibitory activity
"CC1(C)Cc2c(-c3ccccc3)c(-c3ccc(Cl)cc3)c(CC(=O)O)n2C1 [ML 3000, [6-(4-chlorophenyl)-2,2-dimethyl-7-phenyl-2,3-dihydro-1H-pyrrolizine-5-yl]-acetic acid]","reversibility of H,K-ATPase inhibition on dilution",[1]; diluted from 100 μM to 3.3 μM,"restored H,K-ATPase activity"
same,"effect of acidification on H,K-ATPase inhibitory profile",[1]; half-maximal inhibitory concentration titrated to different pHs,no significant effect
same,IC50,[1],15 µM
same,IC50,"[2]; 100 μM histamine, read-out: IC50, histamine-stimulated acid accumulation",40 µM
same,IC50,"[2]; read-out: IC50, forskolin-stimulated acid accumulation",~45 µM
same,IC50,[3]; [7],0.75 µM
same,IC50,"[3]; AGS cells, IL-1β (20 ng/ml), read-out: IC50, IL-1β-stimulated IL-8 secretion",30 µM
same,plasma ML3000 concentration maintained for 8 hours,[4]; dose 2.5 mg/kg,above 100 ng/mL
same,plasma ML3000 concentration maintained for 8 hours,[4]; dose 5 mg/kg,> 200 ng/mL
CS(=O)(=O)Nc1ccc([N+](=O)[O-])cc1OC1CCCCC1 [NS 398],"inhibitory effect on microsomal H,K-ATPase activity",[1],without inhibitory effects
same,effect on acid accumulation by isolated rabbit parietal cells,[2],no effect
COC1(c2cc(F)cc(OCc3ccc4c(ccc(=O)n4C)c3)c2)CCOCC1 [ZD-2138],inhibition at 10 µM,[1]; at 10^−5 M,~20%
same,IC50,[3]; [7],~0.4 µM
CC(=O)Oc1ccccc1C(=O)O [acetyl salicylic acid],effect on acid accumulation by isolated rabbit parietal cells,[2],no effect
same,"inhibitory effect on microsomal H,K-ATPase activity",[5],without inhibitory effects
COc1ccc2c(c1)c(CC(=O)O)c(C)n2C(=O)c1ccc(Cl)cc1 [indomethacin],"inhibitory effect on microsomal H,K-ATPase activity",[1],without inhibitory effects
same,Ki,[6]; previously reported (ref 10),670 µM
Cc1c(OCC(F)(F)F)ccnc1C[S+]([O-])c1nc2ccccc2[nH]1 (centres unmarked) [lansoprazole],IC50,[6],2.1 µM
COc1ccc2cc([C@H](C)C(=O)O)ccc2c1 [naproxen],"inhibitory effect on microsomal H,K-ATPase activity",[1],without inhibitory effects
COC(=O)c1cc2nc([S+]([O-])Cc3ncccc3C)[nH]c2cc1C (centres unmarked) [picoprazole],IC50,[6],2 µM
CCCCC[C@H](O)/C=C/[C@H]1[C@H](O)CC(=O)[C@@H]1C/C=C\CCCC(=O)O [prostaglandin E2],IC50,[1],45 µM
